According to patent US20230035892A1, “METHODS AND COMPOSITIONS FOR TREATING CANCER” (Flagship Pioneering Innovations V, Inc., priority 2019, published 2023):

What was measured:
Format in all cases: cell-based
BXPC3 = experiment: Proliferation, percent viability normalized to DMSO; details: Homo sapiens, BXPC-3
Text: (§1) The GRK2 small molecule antagonist of Formula III-26 was used to evaluate the effect of a small molecule GRK2 antagonist on the proliferation of pancreatic cancer cell lines Miapaca2, Panc1, BXPC3, PAXF1657, PAXF1997 and Capan1. Values represent percent viability normalized to DMSO.

Capan1 = experiment: as above; details: Homo sapiens, CAPAN-1
Text: as §1

MIAPACA2 = experiment: as above; details: Homo sapiens, MIA PaCa-2
Text: as §1

PANC1 = experiment: as above; details: Homo sapiens, PANC-1
Text: as §1

PAXF1657 = experiment: as above
Text: as §1

[1] = system: pancreatic cancer cell lines; experiment: Long-term colony formation assay (10-14 days); details: colony formation 10-14 days
Text: Different concentrations of the compound of Formula III-26 were then used to evaluate its effect on pancreatic cancer cell line proliferation in a long-term colony formation assay (10-14 days).

[2] = system: PAXF1657 control empty vector; experiment: 7-day CellTiter-Glo anti-proliferative assay; details: PAXF1657, sgNTC, pReceiver-empty vector, 5 or 10 point dose curve
Protocol: (§2) Cell lines were seeded into tissue culture treated, white-walled, 96-well plates at a density of 500 cells/well in RPM11640 media supplemented with 10% H.I. FBS and penicillin/streptomycin. Plates were incubated overnight at 37° C., 5% CO2 to allow cells to adhere to the wells. GRK2 small molecule antagonists were added to the cells using a ten-point or five-point dilution series with a final concentration ranging from […] in 0.1% DMSO. At the time of compound addition, a set of plates that were not treated with compounds were collected and cell viability was measured using CellTiter-Glo (Promega). CellTiter-Glo reagent was added to the plates and luminescence was measured using a Biotek Synergy plate reader. The compound treated cells were incubated for 3 days at 37° C., 5% CO2. The media was then aspirated from each well and replaced with fresh media containing GRK2 small molecule antagonists. The compound treated cells were then incubated for another 4 days at 37° C., 5% CO2 and cell viability was assessed at the end of the 7-day compound treatment by CellTiterGlo.

[3] = system: PAXF1657 stably overexpressing GRK2 cDNA; experiment: 7-day CellTiter-Glo anti-proliferative assay; details: PAXF1657, sgNTC, pReceiver-GRK2, 5 or 10 point dose curve
Protocol: as §2

[4] = 168 h, read-out: Maximum % Growth inhibition relative to DMSO, geometric mean

Cn1c(CNc2cccc(C(=O)NCc3ccccc3C(F)(F)F)c2)nnc1-c1ccncc1 [Compound of Formula III-26]
viability at 0.005 µM (BXPC3; BXPC3, dose 0.005 μM): 106% | viability at 0.014 µM (BXPC3; BXPC3, dose 0.014 μM): 105% | viability at 0.041 µM (BXPC3; BXPC3, dose 0.041 μM): 104% | viability at 0.123 µM (BXPC3; BXPC3, dose 0.123 μM): 104% | viability at 0.37 µM (BXPC3; BXPC3, dose 0.370 μM): 108% | viability at 1.111 µM (BXPC3; BXPC3, dose 1.111 μM): 102% | viability at 3.333 µM (BXPC3; BXPC3, dose 3.333 μM): 91.5% | viability at 10 µM (BXPC3; BXPC3, dose 10.000 μM): 77% | viability at 30 µM (BXPC3; BXPC3, dose 30.000 μM): 75.8% | viability at 0.005 µM (Capan1; Capan1, dose 0.005 μM): 107% | viability at 0.014 µM (Capan1; Capan1, dose 0.014 μM): 108% | viability at 0.041 µM (Capan1; Capan1, dose 0.041 μM): 112% | viability at 0.123 µM (Capan1; Capan1, dose 0.123 μM): 114% | viability at 0.37 µM (Capan1; Capan1, dose 0.370 μM): 112% | viability at 1.111 µM (Capan1; Capan1, dose 1.111 μM): 106% | viability at 3.333 µM (Capan1; Capan1, dose 3.333 μM): 100% | viability at 10 µM (Capan1; Capan1, dose 10.000 μM): 90% | viability at 30 µM (Capan1; Capan1, dose 30.000 μM): 95.4% | viability at 0.005 µM (MIAPACA2; Miapaca2, dose 0.005 μM): 102% | viability at 0.014 µM (MIAPACA2; Miapaca2, dose 0.014 μM): 105% | viability at 0.041 µM (MIAPACA2; Miapaca2, dose 0.041 μM): 108% | viability at 0.123 µM (MIAPACA2; Miapaca2, dose 0.123 μM): 111% | viability at 0.37 µM (MIAPACA2; Miapaca2, dose 0.370 μM): 114% | viability at 1.111 µM (MIAPACA2; Miapaca2, dose 1.111 μM): 99.3% | viability at 3.333 µM (MIAPACA2; Miapaca2, dose 3.333 μM): 86.6% | viability at 10 µM (MIAPACA2; Miapaca2, dose 10.000 μM): 66.1% | viability at 30 µM (MIAPACA2; Miapaca2, dose 30.000 μM): 40% | viability at 0.005 µM (PANC1; Panc1, dose 0.005 μM): 103% | viability at 0.014 µM (PANC1; Panc1, dose 0.014 μM): 112% | viability at 0.041 µM (PANC1; Panc1, dose 0.041 μM): 113% | viability at 0.123 µM (PANC1; Panc1, dose 0.123 μM): 113% | viability at 0.37 µM (PANC1; Panc1, dose 0.370 μM): 113% | viability at 1.111 µM (PANC1; Panc1, dose 1.111 μM): 113% | viability at 3.333 µM (PANC1; Panc1, dose 3.333 μM): 100% | viability at 10 µM (PANC1; Panc1, dose 10.000 μM): 85.2% | viability at 30 µM (PANC1; Panc1, dose 30.000 μM): 86.2% | viability at 0.005 µM (PAXF1657; PAXF1657, dose 0.005 μM): 111% | viability at 0.014 µM (PAXF1657; PAXF1657, dose 0.014 μM): 111% | viability at 0.041 µM (PAXF1657; PAXF1657, dose 0.041 μM): 116% | viability at 0.123 µM (PAXF1657; PAXF1657, dose 0.123 μM): 118% | viability at 0.37 µM (PAXF1657; PAXF1657, dose 0.370 μM): 115% | viability at 1.111 µM (PAXF1657; PAXF1657, dose 1.111 μM): 110% | viability at 3.333 µM (PAXF1657; PAXF1657, dose 3.333 μM): 102% | viability at 10 µM (PAXF1657; PAXF1657, dose 10.000 μM): 88.6% | viability at 30 µM (PAXF1657; PAXF1657, dose 30.000 μM): 69% | Mean intensity ([1]; BXPC3, 0.1 μM): 396.24 | Normalized to DMSO ([1]; BXPC3, 0.1 μM): 0.99 | Mean intensity ([1]; BXPC3, 0.3 μM): 445.015 | Normalized to DMSO ([1]; BXPC3, 0.3 μM): 1.11 | Mean intensity ([1]; BXPC3, 1 μM): 418.98 | Normalized to DMSO ([1]; BXPC3, 1 μM): 1.04 | Mean intensity ([1]; BXPC3, 3 μM): 189.24 | Normalized to DMSO ([1]; BXPC3, 3 μM): 0.47 | Mean intensity ([1]; BXPC3, 10 μM): 82.2 | Normalized to DMSO ([1]; BXPC3, 10 μM): 0.20 | Mean intensity ([1]; BXPC3, 30 μM): 76.19 | Normalized to DMSO ([1]; BXPC3, 30 μM): 0.19 | Mean intensity ([1]; Miapaca, 0.1 μM): 447.5 | Normalized to DMSO ([1]; Miapaca, 0.1 μM): 1.09 | Mean intensity ([1]; Miapaca, 0.3 μM): 461.465 | Normalized to DMSO ([1]; Miapaca, 0.3 μM): 1.13 | Mean intensity ([1]; Miapaca, 1 μM): 398.675 | Normalized to DMSO ([1]; Miapaca, 1 μM): 0.97 | Mean intensity ([1]; Miapaca, 3 μM): 386.35 | Normalized to DMSO ([1]; Miapaca, 3 μM): 0.94 | Mean intensity ([1]; Miapaca, 10 μM): 80.16 | Normalized to DMSO ([1]; Miapaca, 10 μM): 0.20 | Mean intensity ([1]; Miapaca, 30 μM): 75.66 | Normalized to DMSO ([1]; Miapaca, 30 μM): 0.18 | Mean intensity ([1]; PAXF1657, 0.1 μM): 617.13 | Normalized to DMSO ([1]; PAXF1657, 0.1 μM): 0.97 | Mean intensity ([1]; PAXF1657, 0.3 μM): 660.9 | Normalized to DMSO ([1]; PAXF1657, 0.3 μM): 1.04 | Mean intensity ([1]; PAXF1657, 1 μM): 574.375 | Normalized to DMSO ([1]; PAXF1657, 1 μM): 0.90 | Mean intensity ([1]; PAXF1657, 3 μM): 410.77 | Normalized to DMSO ([1]; PAXF1657, 3 μM): 0.64 | Mean intensity ([1]; PAXF1657, 10 μM): 326.68 | Normalized to DMSO ([1]; PAXF1657, 10 μM): 0.51 | Mean intensity ([1]; PAXF1657, 30 μM): 271.275 | Normalized to DMSO ([1]; PAXF1657, 30 μM): 0.43 | Mean intensity ([1]; PAXF1997, 0.1 μM): 461.65 | Normalized to DMSO ([1]; PAXF1997, 0.1 μM): 1.07 | Mean intensity ([1]; PAXF1997, 0.3 μM): 500.34 | Normalized to DMSO ([1]; PAXF1997, 0.3 μM): 1.16 | Mean intensity ([1]; PAXF1997, 1 μM): 455.7 | Normalized to DMSO ([1]; PAXF1997, 1 μM): 1.06 | Mean intensity ([1]; PAXF1997, 3 μM): 379.285 | Normalized to DMSO ([1]; PAXF1997, 3 μM): 0.88 | Mean intensity ([1]; PAXF1997, 10 μM): 296.635 | Normalized to DMSO ([1]; PAXF1997, 10 μM): 0.69 | Mean intensity ([1]; PAXF1997, 30 μM): 288.38 | Normalized to DMSO ([1]; PAXF1997, 30 μM): 0.67 | Mean intensity ([1]; Panc1, 0.1 μM): 477.265 | Normalized to DMSO ([1]; Panc1, 0.1 μM): 1.16 | Mean intensity ([1]; Panc1, 0.3 μM): 478.195 | Normalized to DMSO ([1]; Panc1, 0.3 μM): 1.17 | Mean intensity ([1]; Panc1, 1 μM): 509.365 | Normalized to DMSO ([1]; Panc1, 1 μM): 1.24 | Mean intensity ([1]; Panc1, 3 μM): 504.735 | Normalized to DMSO ([1]; Panc1, 3 μM): 1.23 | Mean intensity ([1]; Panc1, 10 μM): 254.47 | Normalized to DMSO ([1]; Panc1, 10 μM): 0.62 | Mean intensity ([1]; Panc1, 30 μM): 181.7 | Normalized to DMSO ([1]; Panc1, 30 μM): 0.44 | Emax [2, 4]: 61% | GI50 ([2]; read-out: GI50, geometric mean): 9.49 µM | Emax [3, 4]: 24.8% | GI50 ([3]; read-out: GI50, geometric mean): > 10 µM
